The nature of one series: in vitro. Conditions: pH 7.4. The procedure: The mixture of compound and microsome was pre-incubated for 30 minutes, initiating the reaction by addition of NADPH regenerating system (1 unit/mL Isocitric dehydrogenase). At time point 0, 5, 15, 30, 45 and 60 minutes the reactions were stopped by addition of 300 μL cold acetonitrile ([…]) containing 100 ng/mL tolbutamide as internal standard (IS). The samples were immediately mixed and centrifuged at 4000 rpm for 20 min. 100 μL supernatant was transferred to a fresh 96-well containing 300 μL HPLC-grade water for quantitative analysis by LC-MS/MS (LC: Shimatzu LC 10 AD; MS/MS detection: Sciex API4000), using positive ion electrospray. Triplicate experiments (n=3) was performed for each compound. A single-exponential curve (Ct=C0*e^−kt) was fitted to the concentration-time data points to calculate the elimination rate constant (k). The following equation 1 was used to calculate the total hepatic intrinsic clearance (CLint): […]

Series [1] can be described thus: Plasma protein binding, equilibrium dialysis. Conditions: human plasma dialysed against phosphate buffer, pH 7.4, mass recovery from the dialysis device. The class given is in vitro ADME. The procedure: (§1) Human plasma was obtained from Bioreclamation (Lot No. BRH354026). A 96-Well Micro-equilibrium Dialysis Device (HT-Dialysis LLC, Model HTD 96 b) separated by dialysis membrane (MWCO 12-14k, HT Dialysis), was used to study the protein binding. The dialysis membrane strips were soaked in distilled water for 1 hour and then in 20% ethanol in water (v/v) for another 20 minutes. The membrane strips were subsequently rinsed 20 min in pure water before use. The studied compounds were individually spiked into human plasma to a final concentration of 0.2 μM, and pre-incubated for 30 min. Aliquots (150 μL) of phosphate buffer (100 mM sodium phosphate, pH 7.4) and spiked plasma was placed in the receiver and donor compartment, respectively. The dialysis block was sealed and placed in a shaker (150 rpm) for 6 hours at 37° C. Each experiment was performed in triplicates (n=3). Aliquot 50 μL from both the donor sides and receiver sides of the dialysis devise was transferred into new sample preparation plates and mixed with the aliquots with same volume of opposite matrixes (blank buffer to plasma and visa verse). […] Hundred μL of the supernatant was transferred to a new 96-well plate and mixed with 200 μL of Milli-Q water containing 0.1% FA. Drug content was quantified with LC/MS/MS (Sciex API4000).
(§2) Percent bound to plasma is calculated as follows:
(§3) % Bound=100−(100×[Receiver]6h/[Donor]6h.) Equation 2
(§4) Mass recovery of test compound from the HTDialysis after 6 h is calculated as follows:
(§5) % Recovery=100×([Donor]6h+[Receiver]6h)/[Donor]0h Equation 3

In a further series the test system is human plasma proteins. Briefly: Plasma protein binding, equilibrium dialysis. Type of series: in vitro ADME. Conditions: for degree of protein binding in human plasma compared to tandospirone: One-way ANOVA with Dunnett's test vs Tandospirone. The protocol:
as §1, §2, §3, §4, §5
(In general: In equilibrium dialysis free small molecules cross a membrane that holds back macromolecules.)

Series [2] is described as follows: Permeability over MDR1-transfected MDCK cell monolayer. The class given is in vitro ADME, Canine. Conditions: dog; MDR1-MDCK cell monolayer, 2 μM, 150-minute incubation, apical to basolateral. The protocol: (§6) The ability of molecules to pass a biological membrane, like the gastro-intestinal epithelia and the blood-brain barrier endothelia is essential for orally delivered drugs targeting diseases in the brain. The Madin-Darby Canine Kidney (MDCK) cell line is used as an industry standard to evaluate biomembrane passage properties of drugs. […] Test compounds were diluted with the transport buffer (HBSS+1% BSA) from a 10 mM stock solution to a concentration of 2 μM and applied to the apical (A) or basolateral (B) side of the cell monolayer.
(§7) In addition, the efflux ratio of each compound was also determined.
(§8) The apparent biomembrane permeability coefficient Papp (cm/s) was calculated using the equation:
(§9) Papp=(dCr/dt)×Vr/(A×C0) Equation 4
(§10) Where dCr/dt is the cumulative concentration of compound in the receiver chamber as a function of time (μM/s); Vr is the solution volume in the receiver chamber (0.075 mL on the apical side, 0.25 mL on the basolateral side); A is the surface area for the transport, i.e. 0.084 cm2 for the area of the monolayer; Co is the initial concentration in the donor chamber.
(§11) The efflux ratio was calculated using the equation:
(§12) Efflux Ratio=Papp(BA)/Papp(AB) Equation 5
(§13) Percent recovery was calculated using the equation:
(§14) % Recovery=100×[(Vr×Cr)+(Vd×Cd)]/(Vd×C0) Equation 6
(§15) Where Vd is the volume in the donor chambers (0.075 mL on the apical side, 0.25 mL on the basolateral side); Cd and Cr are the final concentrations of transport compound in donor and receiver chambers, respectively.

For another series, the system named is MDR1 (P-gp). The series is described as above. Type of series: in vitro ADME, Canine. Conditions: dog, donor and receiver chamber, MDR1-MDCK monolayer, 2 μM. The procedure: as §6, §7, §8, §9, §10, §11, §12, §13, §14, §15
A further series has as its system MDR1-MDCK cell monolayer. The series is described as above. The class given is in vitro ADME, Canine. The procedure: as §6, §7, §8, §9, §10, §11, §12, §13, §14, §15
Series [3] has as its target serotonin 5-HT1A receptor. Conditions: Hamik et al. 1990; read-out: Ki affinity value; cited from earlier work.
Series [4] concerns serotonin 5-HT1A receptor. Conditions: partial agonist; Tanaka et al. 1995 and Yabuuchi et al. 2004; cited from earlier work.
For series [5] the following is noted: in humans; Nakashima and Kanemaru 1992; cited from earlier work.
The test system of the next series is plasma proteins. Conditions: Miller et al., 1992; cited from earlier work.
[6] abbreviates: pH 7.4, 0.2 μM, equilibrium dialysis, 37° C., n=3, read-out: Protein binding (%) (converted).

Structures are written as SMILES. Read-outs that look alike come from different tables or passages of the source.

Take `[2H]C([2H])(CCCN1C(=O)[C@@]2([2H])[C@H]3CC[C@H](C3)[C@@]2([2H])C1=O)N1CCN(c2ncccn2)CC1` [Compound XV, (1R,2R,6S,7S)-4-{4-[4-(pyrimidin-2-yl)piperazin-1-yl]-(4-^2H2)butyl}-(2,6-^2H2)-4-azatricyclo[5.2.1.0^2,6]decane-3,5-dione]: the CLint scaled (as a rule, a measure of how fast metabolising enzymes remove a compound, apart from limits set by blood flow) at 1 μM in “in vitro” (human, microsomes) was found to be 229 mL/min/kg. Moreover, the recovery at 6 h, 0.2 μM in series [1] came to 92%. Besides, in the series with human plasma proteins (setting [6]), the fraction unbound at 6 h, 0.2 μM was 0.38.

For the compound `[2H]C([2H])(CN1C(=O)[C@@H]2[C@@H]3CC[C@@H](C3)[C@@H]2C1=O)C([2H])([2H])C([2H])([2H])N1CCN(c2ncccn2)CC1` [XVIII, (1R,2R,6S,7S)-4-{4-[4-(pyrimidin-2-yl)piperazin-1-yl]-(2,2,3,3,4,4-^2H6)butyl}-4-azatricyclo[5.2.1.0^2,6]decane-3,5-dione], the CLint scaled at 1 μM in the series “in vitro” (human, microsomes) is 224 mL/min/kg. This compound gave a recovery at 6 h, 0.2 μM in series [1] of 111%. In addition, the “degree of protein binding in human plasma compared to tandospirone” value (from here on “degree … compared to tandospirone”) in the series on human plasma proteins is “statistically significant lower degree of protein binding”. Also, in the series on human plasma proteins (setting [6]), the fraction unbound at 6 h, 0.2 μM is 0.47.

For `[2H]c1cnc(N2CCN(C([2H])([2H])CCCN3C(=O)[C@@H]4[C@@H]5CC[C@@H](C5)[C@@H]4C3=O)CC2)nc1` [Compound III, (1R,2R,6S,7S)-4-{4-[4-((5-^2H)pyrimidin-2-yl)piperazin-1-yl]-(4,4-^2H2)butyl}-4-azatricyclo[5.2.1.0^2,6]decane-3,5-dione], the CLint scaled at 1 μM in the series “in vitro” (human, microsomes) is 219 mL/min/kg. The recovery at 6 h, 0.2 μM in series [1] turned out to be 86%. In addition, the “degree … compared to tandospirone” value in the series on human plasma proteins is given as “statistically significant lower degree of protein binding”. For the same compound, the fraction unbound at 6 h, 0.2 μM in the series on human plasma proteins (setting [6]) was 0.51. Also, in series [2], the Papp A→B (as a rule, the apparent permeability from the apical to the basolateral side of a cell layer) at 150 min, 2 μM was 35 ×10⁻⁶ cm/s. In the series with MDR1 (P-gp) (MDCK-MDR1 cell monolayer), this compound returned a recovery at 150 min, 2 μM of 112%. In the series on MDR1-MDCK cell monolayer (P<0.05, One-way ANOVA with Dunnett's test), the “Papp, A-B compared to tandospirone” value is recorded as “statistically significant higher Papp, A-B”.

For `CC(Cc1ccc(O)cc1)NCC(O)c1cc(O)cc(O)c1` (stereo not drawn) [Fenoterol], in [2], the Papp A→B at 150 min, 2 μM was 0.92 ×10⁻⁶ cm/s. Also, the recovery at 150 min, 2 μM in the series with MDR1 (P-gp) was determined as 109%.

In the case of `[2H]c1cnc(N2CCN(C([2H])([2H])CCCN3C(=O)[C@@H]4[C@H](C3=O)[C@H]3C[C@@H]4C([2H])C3[2H])CC2)nc1` (stereo partly drawn) [VII, (1R,2R,6S,7S)-4-{4-[4-((5-^2H)pyrimidin-2-yl)piperazin-1-yl]-(4,4-^2H2)butyl}-(8,9-^2H2)-4-azatricyclo[5.2.1.0^2,6]decane-3,5-dione], the CLint scaled at 1 μM in the series “in vitro” (human, microsomes) stood at 231 mL/min/kg. This compound also returned a recovery at 6 h, 0.2 μM in series [1] of 94%. In the series on human plasma proteins (setting [6]), the fraction unbound at 6 h, 0.2 μM was 0.31.

As to `O=C(O)Cc1ccccc1Nc1c(Cl)cccc1Cl` [Diclofenac, reference compound], the CLint scaled at 1 μM in the series “in vitro” (human, microsomes) stood at 90 mL/min/kg.

In turn, `[2H]C([2H])(CCCN1C(=O)[C@@H]2[C@@H]3CC[C@@H](C3)[C@@H]2C1=O)N1CCN(c2ncccn2)CC1` [Compound II, (1R,2R,6S,7S)-4-{4-[4-(pyrimidin-2-yl)piperazin-1-yl]-(4,4-^2H2)butyl}-4-azatricyclo[5.2.1.0^2,6]decane-3,5-dione] registered a CLint scaled at 1 μM in the series “in vitro” (human, microsomes) of 235 mL/min/kg. In series [1], the recovery at 6 h, 0.2 μM was found to be 95%. The “degree … compared to tandospirone” value in the series on human plasma proteins is reported as “statistically significant lower degree of protein binding”. The fraction unbound at 6 h, 0.2 μM with human plasma proteins (setting [6]) was 0.42.

On to `[2H]c1cnc(N2CCN(C([2H])CCCN3C(=O)[C@@H]4[C@@H]5CC[C@@H](C5)[C@@H]4C3=O)CC2)nc1` (stereo partly drawn) [IX, (1R,2R,6S,7S)-4-{4-[4-((5-^2H)pyrimidin-2-yl)piperazin-1-yl]-(4-^2H)butyl}-4-azatricyclo[5.2.1.0^2,6]decane-3,5-dione], for which, in the series on human plasma proteins, the “degree … compared to tandospirone” value is reported as “statistically significant lower degree of protein binding”.

On to `O=C1[C@@H]2[C@@H]3CC[C@@H](C3)[C@@H]2C(=O)N1CCCCN1CCN(c2ncccn2)CC1` [Tandospirone, (1R,2R,6S,7S)-4-{4-[4-(pyrimidin-2-yl)piperazin-1-yl]butyl}-4-azatricyclo[5.2.1.0^2,6]decane-3,5-dione], for which the Ki (as a rule, the dissociation constant of the complex between target and ligand, obtained from inhibition or displacement) in [3] was 27 ± 5 nM. Besides, the intrinsic activity in series [4] was 55-85%.

Consider `O=C1[C@@H]2[C@H]3CC[C@H](C3)[C@@H]2C(=O)N1CCCCN1CCN(c2ncccn2)CC1` [Tandospirone, (1R,2R,6S,7S)-4-{4-[4-(pyrimidin-2-yl)piperazin-1-yl]butyl}-4-azatricyclo[5.2.1.0^2,6]decane-3,5-dione], for which the CLint scaled at 1 μM in the series “in vitro” (human, microsomes) stood at 282 mL/min/kg. In addition, the recovery at 6 h, 0.2 μM in [1] was determined as 82%. In addition, the “Protein binding (%)” value in the series on human plasma proteins (0.2 μM, equilibrium dialysis, 37° C., n=3) was found to be 70%. Moreover, the fraction unbound at 6 h, 0.2 μM in the series with human plasma proteins (human, pH 7.4, read-out: observed unbound fraction) is 0.3. This compound had a Papp A→B at 150 min, 2 μM in series [2] of 30 ×10⁻⁶ cm/s. The compound further returned a recovery at 150 min, 2 μM with MDR1 (P-gp) (MDCK-MDR1 cell monolayer) of 107%. In [5], the “elimination half-life in the systemic circulation” value is 1 to 2 h. In addition, in the series on plasma proteins, the “unbound fraction reported in the literature” value is 30.4%.

Turning to `C[C@]12CC[C@H]3[C@@H](CCC4=CC(=O)CC[C@@]43C)[C@@H]1CC[C@@H]2O` [Testosterone, reference compound], the CLint scaled at 1 μM in “in vitro” was 70 mL/min/kg.

For the compound `[2H]C1C([2H])[C@@H]2C[C@H]1[C@@H]1C(=O)N(CCCC([2H])([2H])N3CCN(c4ncccn4)CC3)C(=O)[C@@H]12` (stereo partly drawn) [VI, (1R,2R,6S,7S)-4-{4-[4-(pyrimidin-2-yl)piperazin-1-yl]-(4,4-^2H2)butyl}-(8,9-^2H2)-4-azatricyclo[5.2.1.0^2,6]decane-3,5-dione], the CLint scaled at 1 μM in “in vitro” (human, microsomes) was determined as 240 mL/min/kg. Besides, the recovery at 6 h, 0.2 μM in series [1] stood at 96%. Also, the “degree … compared to tandospirone” value with human plasma proteins was “statistically significant lower degree of protein binding”. Also, the fraction unbound at 6 h, 0.2 μM in the series with human plasma proteins (setting [6]) was 0.43.

For the compound `CC(C)NCC(O)COc1cccc2ccccc12` (stereo not drawn) [Propranolol], the B-A/A-B efflux ratio with MDR1-MDCK cell monolayer (MDR1-MDCK cell monolayer, 2 μM) was determined as 62. For the same compound, the “Papp, A-B (×10^−6 cm/s)” value in the series on MDR1-MDCK cell monolayer (MDR1-MDCK cell monolayer, 2 μM, 150-minute incubation, apical to basolateral) is 15 ×10^−6 cm/s.

(Values after patent US20130303497A1, “DEUTERATED 5-HT1A RECEPTOR AGONISTS” (priority 2010, published 2013).)
